Results published in patent US3978055A, “Arylamino pyrimidinic derivatives” (priority 1973, dated 1976).

Experiments:
[1] = tested on: painful stretchings caused by phenylbenzoquinone; experiment: Analgesic test with phenylbenzoquinone (painful stretchings); format: in vivo; conditions: Mus musculus, po, read-out: Percentage of diminution of the number of painful stretchings
[2] = Lethal doses / percentage mortality; format: in vivo; conditions: in vivo, mouse
Excerpt: As a result of a comparison between the pharmacologically active doses mentioned above, and the lethal doses listed in the following table XIV, the difference between the doses is sufficiently great to permit the utilisation of the derivatives of formula I in therapeutics.

[3] = tested on: bronchoconstriction provoked by acetylcholine; experiment: Bronchoconstriction provoked by intravenous acetylcholine, Konzett method; format: in vivo; conditions: guinea-pig, intraperitoneal injection of 100mg/kg
Procedure: Injected by intraduodenal means, the derivatives of formula I are capable of opposing the bronchoconstriction provoked in the guinea - pig by the intraveinous injection of acetylcholine and evaluated by the Konzett method.
By way of example, the following Table VI lists the percentage inhibition of the bronchoconstriction following the intraperitoneal injection of 100mg/kg of different derivatives of formula I.

[4] = tested on: mortality caused by strychnine; experiment: Mortality caused by sub-cutaneous injection of strychnine (myorelaxant); format: in vivo; conditions: mouse, 100 mg/kg/p.o.
Procedure: The derivatives of formula I, preventively administered by oral means to the mouse, reduce the mortality caused by the sub-cutaneous injection of strychnine.
Thus, the derivative of Code No. 72608, administered in a dose of 100 mg/kg/p.o., permits a 50 % protection against the lethality of strychnine.

Shay ulcers = experiment: Gastric ulcers provoked by tying of the pylorus (Shay ulcers); format: in vivo; conditions: intraduodenal; rat, 50mg/kg/i.d.; read-out: Percentage reduction of shay ulcers
Procedure: The derivatives of formula I, administered by oral means, reduce the extent of gastric ulcers provoked in a rat by tying of the pylorus (Shay ulcers)
Table IV indicated, by way of example, the results obtained by the administration of 50mg/kg/i.d. of different derivatives of formula I.

[5] = tested on: isolated duodenum of the rat; experiment: Contractural action of barium chloride in isolated duodenum (spasmolytic); conditions: papaverine as standard
Procedure: The derivatives of formula I introduced in the conserving medium, are capable of opposing the contractural action of barium chloride in the isolated duodenum of the rat. This activity is evaluated taking papaverine as standard.

SMILES	inhibition in vivo at 100 mg/kg [1]	mortality ([2]; 1 600 mg/kg/PO)	Percentage inhibition of bronchoconstriction [3]	protection against the lethality of strychnine [4]	inhibition in vivo at 50 mg/kg (Shay ulcers)	mortality ([2]; 1000 mg/kg, 1 000 mg/kg/PO)	spasmolytic activity relative to papaverine [5]
Cc1cc(Nc2ccccc2C(N)=O)nc(-c2ccc3c(c2)OCO3)n1 [72 608]	55%	~50%	65%	50%	–	–	–
CCCN(CCC)CCOc1ccc(Nc2cc(C)nc(-c3ccccc3)n2)cc1 [730 282]	73%	–	–	–	50%	~50%	double to that of papaverine
